Assay results published in patent US8029818B2, “Method of blunting the postprandial glycemic response to a meal” (Abbott Laboratories, priority 2001, dated 2011).

Assays:
rats = settings: fructose intake levels greater than 17% of total Kcal; cited from earlier work
humans = settings: fructose intake levels greater than 17% of total Kcal; cited from earlier work
[1] = system: healthy nondiabetic adult subjects; experiment: 2-hour meal tolerance test (50 g carbohydrate from instant mashed potatoes ±10 g fructose), postprandial glycemic response; assay type: in vivo, human; settings: for Incremental AUC / Incremental peak glucose / Time to peak: Mean ± SEM; for Glycemic index: incremental AUC for treatment/control (no supplemental fructose) × 100
Description: (§1) The primary objective of this study was to determine the effects of the timing of fructose ingestion on the postprandial glycemic response of healthy nondiabetic adult subjects to instant mashed potatoes, a rapidly digested starch. A secondary objective was to evaluate the effects of an acute challenge of 50 g of carbohydrate from instant mashed potatoes ±10 g fructose on subjective gastrointestinal tolerance.
The study followed a double-blind crossover design in which subjects participated in four 2-hour meal tolerance tests on separate occasions. Subjects were randomly assigned to one of 24 treatment sequences. After an overnight fast, subjects consumed 50 g carbohydrate from instant mashed potatoes with or without 10 g supplemental fructose. The effects of the timing of fructose ingestion were evaluated by having the subjects consume 10 g fructose 60, 30, or 0 min before the instant mashed potato meal. A control meal tolerance test was given where subjects received no fructose.
To ensure that subjects had similar glycogen stores on the 4 test days, subjects were instructed to consume a high carbohydrate diet (minimum 150 g carbohydrate per day) for 3 days before each meal tolerance test and were also asked to avoid exercise 24 hours before the experiment. On the evening before each meal tolerance test, all subjects consumed a low-residue dinner consisting of one 8 fl oz (237 ml) can of chocolate Ensure Plus® (Ross Laboratories, Columbus, Ohio) with additional Honey Graham Crunch Ensure® Bars (Ross Laboratories, Columbus, Ohio) to provide one-third of each subject's individual daily caloric requirement as estimated by the Harris-Benedict equation multiplied by an activity factor of 1.3. Subjects were instructed to fast overnight, following their low-residue evening meal, during which they were only allowed to consume water and smoking was prohibited. On the morning of each meal tolerance test, body weight, body temperature, pulse rate and blood pressure were measured by standard procedures. A fasting finger-prick capillary blood sample was obtained and analyzed utilizing two methods of glucose determination. One sample was immediately analyzed for glucose with an Accu-Chek Blood Glucose Monitoring System (Roche Diagnostics, Indianapolis, Ind.). An additional sample was collected into a capillary tube containing EDTA for whole blood glucose analysis (within 30 min of collection) using a YSI analyzer (model YSI 2300 STAT PLUS, Yellow Springs Instruments, Yellow Springs, Ohio). This fasting sample was considered the −60 min time point. According to randomization, subjects then consumed 10 g fructose at −60 min, −30, or 0 min or no supplemental fructose (30 ml water at −60 min). The test meal (50 g carbohydrate from instant mashed potatoes) was given at time 0 and consumed within 10 min. Additional finger-prick capillary blood was obtained at −30, 0, 15, 30, 45, 60, 90 and 120 min postprandial. Subjects were allowed 8 fl oz water (240 ml) during each 2-hour test. Immediately following each trial, body temperature, pulse rate and blood pressure were measured. Subjects returned within 7 days for repeat analysis with the appropriate crossover treatment.
The products tested were instant mashed potatoes (Hungry Jack Mashed Potatoes; Pillsbury Company) and purified crystalline fructose (Wild Oats Market grocery; Columbus, Ohio).
The primary variable for this study was incremental peak plasma glucose response. Secondary variables included incremental area under the curve, time to peak glucose, glycemic index, and subjective gastrointestinal tolerance factors. Exploratory variables included absolute and incremental plasma glucose response at −30, 0, 15, 30, 45, 60, 90, and 120 min postprandial.
A total of 31 healthy nondiabetic (fasting plasma glucose value less than 110 mg/dl; American Diabetes Association, 1997) volunteers (thirteen men and eighteen women) were recruited. […]

[2] = system: healthy nondiabetic adult subjects; experiment: Subjective gastrointestinal tolerance questionnaire, 24-h period after the test material; assay type: in vivo, human; settings: for Intensity of Cramping / Intensity of Distention / Intensity of Flatulence / Intensity of Nausea: 100-mm line scale score (0 Absent, 100 Severe); for Intensity of Cramping / Intensity of Distention / Intensity of Flatulence / Intensity of Nausea / Frequency of Cramping / Frequency of Distention / Frequency of Flatulence / Frequency of Nausea: Mean ± SEM, n=31; for Frequency of Cramping / Frequency of Distention / Frequency of Flatulence / Frequency of Nausea: 100-mm line scale score (0 Usual, 100 More than usual)
Description: as §1
Using a questionnaire, subjects were asked to report the frequency and intensity of the following symptoms: nausea, cramping, distention, and flatulence for the 24-h period immediately following consumption of the test material. Intensity and frequency was set to a 100-mm line scale (0 representing “Absent” and 100 “Severe” and 0 representing “Usual” and 100 “More than usual,” respectively). Subjects placed a single perpendicular slash mark across the 100 mm horizontal line to indicate their scores for each of these variables of frequency and intensity. A score of 5 or less was considered not physiologically meaningful.

[3] = 10 g fructose 60 or 30 min before the meal tolerance test vs fructose with the meal or no supplemental fructose, P<0.05
[4] = Accu-Chek values, 10 g fructose at 0 min (with test meal), n=31
[5] = Accu-Chek values, 10 g fructose at −30 min relative to test meal, n=31
[6] = Accu-Chek values, 10 g fructose at −60 min relative to test meal, n=31
[7] = YSI values (whole blood), 10 g fructose at 0 min (with test meal), n=28
[8] = YSI values (whole blood), 10 g fructose at −30 min relative to test meal, n=25
[9] = YSI values (whole blood), 10 g fructose at −60 min relative to test meal, n=26

## O=C(CO)[C@@H](O)[C@H](O)[C@H](O)CO [fructose]
rats
  effect on blood lipids: cause hypertriacylglycerolemia and hypercholesterolemia
humans
  effect on blood lipids: cause hypertriacylglycerolemia and hypercholesterolemia
[1]; [3]
  Peak incremental change from baseline for plasma glucose: lower
  incremental area under the curve for plasma glucose: lower
[1]; 10 g fructose at −30 min compared to the 0-min time fructose ingestion treatment, P<0.05
  incremental change from baseline in plasma glucose at the 0 min time point: increased
[1]; 10 g fructose at −60 min compared to the other treatments, P<0.05
  incremental change from baseline in plasma glucose at the −30 min time point: increased
[1]; 10 g fructose given 30 or 60 min before the meal tolerance test
  postprandial glycemic response: reduced the postprandial glycemic response
[1]; 10 g supplemental fructose given with the meal glucose tolerance test, compared to the control
  postprandial glycemic response: had no effect
[1]; [4]
  Incremental AUC: 3059 ± 246 mg·min/dL
  Incremental peak glucose: 65.7 ± 3.2 mg/dL
  Time to peak: 38 ± 1.9 min
[1]; Accu-Chek values, 10 g fructose at 0 min, n=31
  Glycemic index: 98.8 ± 6.2
[1]; Accu-Chek values, 10 g fructose at −30 min, n=31
  Glycemic index: 80.2 ± 8.5
[1]; [5]
  Incremental AUC: 2329 ± 210 mg·min/dL
  Incremental peak glucose: 49.5 ± 2.5 mg/dL
  Time to peak: 36 ± 2.0 min
[1]; Accu-Chek values, 10 g fructose at −60 min, n=31
  Glycemic index: 84.1 ± 6.6
[1]; [6]
  Incremental AUC: 2398 ± 142 mg·min/dL
  Incremental peak glucose: 51.6 ± 2.2 mg/dL
  Time to peak: 35 ± 1.3 min
[1]; [7]
  Incremental AUC: 2592 ± 213 mg·min/dL
  Incremental peak glucose: 56.7 ± 3.0 mg/dL
  Time to peak: 37 ± 1.8 min
[1]; [8]
  Incremental AUC: 1880 ± 189 mg·min/dL
  Incremental peak glucose: 39.9 ± 2.6 mg/dL
  Time to peak: 33 ± 1.5 min
[1]; [9]
  Incremental AUC: 2094 ± 132 mg·min/dL
  Incremental peak glucose: 44.4 ± 2.0 mg/dL
  Time to peak: 33 ± 1.2 min
[1]; YSI values, 10 g fructose at 0 min, n=28
  Glycemic index: 107.1 ± 11.1
[1]; YSI values, 10 g fructose at −30 min, n=25
  Glycemic index: 82.5 ± 10.6
[1]; YSI values, 10 g fructose at −60 min, n=26
  Glycemic index: 89.6 ± 7.5
[1]; between treatments (fructose at −60, −30, 0 min or none), P>0.05
  Time to peak glucose: did not differ
[1]; between treatments, P>0.05
  postprandial incremental change from baseline in plasma glucose at 90 and 120 min: did not differ
[1]; fructose at −30 min compared to the control and 0-min time fructose ingestion treatment, P<0.05
  incremental change from baseline in plasma glucose at 15 min: higher
[1]; fructose −60 or −30 min relative to the meal tolerance test
  incremental change from baseline in plasma glucose over the 30, 45 and 60 min time points: tended to be lower
[2]; 10 g fructose at 0 min
  Intensity of Cramping: 3 ± 1.9
  Intensity of Distention: 1 ± 0.4
  Intensity of Flatulence: 1 ± 0.5
  Intensity of Nausea: 0 ± 0.2
  Frequency of Cramping: 7 ± 4.1
  Frequency of Distention: 1 ± 0.6
  Frequency of Flatulence: 3 ± 1.3
  Frequency of Nausea: 1 ± 0.2
[2]; 10 g fructose at −30 min
  Intensity of Cramping: 2 ± 1.6
  Intensity of Distention: 3 ± 1.5
  Intensity of Flatulence: 5 ± 1.7
  Intensity of Nausea: 1 ± 0.4
  Frequency of Cramping: 1 ± 0.2
  Frequency of Distention: 4 ± 1.9
  Frequency of Flatulence: 7 ± 2.9
  Frequency of Nausea: 1 ± 0.2
[2]; 10 g fructose at −60 min
  Intensity of Cramping: 1 ± 0.3
  Intensity of Distention: 1 ± 1.0
  Intensity of Flatulence: 3 ± 1.5
  Intensity of Nausea: 1 ± 0.3
  Frequency of Cramping: 4 ± 3.2
  Frequency of Distention: 1 ± 0.3
  Frequency of Flatulence: 3 ± 1.7
  Frequency of Nausea: 1 ± 0.3
[2]; all treatments: 50 g carbohydrate from instant mashed potatoes with or without 10 g supplemental fructose
  gastrointestinal symptoms (intensity and frequency of nausea, cramping, distention and flatulence): Minimal effects
